Measurements: ChEMBL document CHEMBL4004803, “Syntheses and antibacterial activity of soluble 9-bromo substituted indolizinoquinoline-5,12-dione derivatives” (Eur J Med Chem, 2017)
Values after ≈ are worked out from the molar mass of the structure shown.

Tests used:
Type in all cases: functional
Staphylococcus aureus [1] = test: Antibacterial activity against methicillin-resistant Staphylococcus aureus 102849 clinical isolate after 20 to 24 hrs by two-fold microdilution method
Staphylococcus aureus [2] = test: Antibacterial activity against methicillin-resistant Staphylococcus aureus 103054 clinical isolate after 20 to 24 hrs by two-fold microdilution method
Staphylococcus aureus [3] = test: Antibacterial activity against methicillin-resistant Staphylococcus aureus 111423 clinical isolate after 20 to 24 hrs by two-fold microdilution method
Staphylococcus aureus [4] = test: Antibacterial activity against methicillin-resistant Staphylococcus aureus 10281-2 clinical isolate after 20 to 24 hrs by two-fold microdilution method
Staphylococcus aureus [5] = test: Antibacterial activity against methicillin-resistant Staphylococcus aureus 131215 clinical isolate after 20 to 24 hrs by two-fold microdilution method
Staphylococcus aureus [6] = test: Antibacterial activity against methicillin-resistant Staphylococcus aureus 111625 clinical isolate after 20 to 24 hrs by two-fold microdilution method
Streptococcus pneumoniae = test: Antibacterial activity against Streptococcus pneumoniae ATCC 6305 after 20 to 24 hrs by two-fold microdilution method
Staphylococcus aureus [7] = test: Antibacterial activity against methicillin-resistant Staphylococcus aureus 822030 clinical isolate after 20 to 24 hrs by two-fold microdilution method
Enterococcus faecalis = test: Antibacterial activity against Enterococcus faecalis ATCC 29212 after 20 to 24 hrs by two-fold microdilution method
[8] = test system: Staphylococcus haemolyticus; test: Antibacterial activity against Staphylococcus haemolyticus CICC 10373 after 20 to 24 hrs by two-fold microdilution method
Staphylococcus aureus [9] = test: Antibacterial activity against methicillin-resistant Staphylococcus aureus ATCC 43300 after 20 to 24 hrs by two-fold microdilution method
Staphylococcus aureus [10] = test: Antibacterial activity against methicillin-resistant Staphylococcus aureus 19950 clinical isolate after 20 to 24 hrs by two-fold microdilution method
Staphylococcus aureus [11] = test: Antibacterial activity against methicillin-resistant Staphylococcus aureus 1012029 clinical isolate after 20 to 24 hrs by two-fold microdilution method
Staphylococcus aureus [12] = test: Antibacterial activity against methicillin-resistant Staphylococcus aureus 1023043 clinical isolate after 20 to 24 hrs by two-fold microdilution method
Staphylococcus aureus [13] = test: Antibacterial activity against methicillin-resistant Staphylococcus aureus 12308 clinical isolate after 20 to 24 hrs by two-fold microdilution method
Staphylococcus aureus [14] = test: Antibacterial activity against methicillin-resistant Staphylococcus aureus 1108204 clinical isolate after 20 to 24 hrs by two-fold microdilution method
Staphylococcus aureus [15] = test: Antibacterial activity against methicillin-resistant Staphylococcus aureus 1103006 clinical isolate after 20 to 24 hrs by two-fold microdilution method
Staphylococcus aureus [16] = test: Antibacterial activity against methicillin-resistant Staphylococcus aureus 112047 clinical isolate after 20 to 24 hrs by two-fold microdilution method
Staphylococcus aureus [17] = test: Antibacterial activity against methicillin-resistant Staphylococcus aureus 519238 clinical isolate after 20 to 24 hrs by two-fold microdilution method
Staphylococcus aureus [18] = test: Antibacterial activity against methicillin-resistant Staphylococcus aureus 1024010 clinical isolate after 20 to 24 hrs by two-fold microdilution method
Staphylococcus aureus [19] = test: Antibacterial activity against methicillin-resistant Staphylococcus aureus 614019 clinical isolate after 20 to 24 hrs by two-fold microdilution method
Staphylococcus aureus [20] = test: Antibacterial activity against methicillin-resistant Staphylococcus aureus 110328-1 clinical isolate after 20 to 24 hrs by two-fold microdilution method
Staphylococcus aureus [21] = test: Antibacterial activity against methicillin-resistant Staphylococcus aureus 316031 clinical isolate after 20 to 24 hrs by two-fold microdilution method
Staphylococcus aureus [22] = test: Antibacterial activity against methicillin-resistant Staphylococcus aureus 219236 clinical isolate after 20 to 24 hrs by two-fold microdilution method
Staphylococcus aureus [23] = test: Antibacterial activity against methicillin-resistant Staphylococcus aureus 112106 clinical isolate after 20 to 24 hrs by two-fold microdilution method
Staphylococcus aureus [24] = test: Antibacterial activity against methicillin-resistant Staphylococcus aureus 30116-1 clinical isolate after 20 to 24 hrs by two-fold microdilution method
Staphylococcus aureus [25] = test: Antibacterial activity against methicillin-resistant Staphylococcus aureus 831024 clinical isolate after 20 to 24 hrs by two-fold microdilution method
Staphylococcus aureus [26] = test: Antibacterial activity against methicillin-resistant Staphylococcus aureus 120827 clinical isolate after 20 to 24 hrs by two-fold microdilution method
Staphylococcus aureus [27] = test: Antibacterial activity against methicillin-resistant Staphylococcus aureus 530231 clinical isolate after 20 to 24 hrs by two-fold microdilution method
Staphylococcus aureus [28] = test: Antibacterial activity against methicillin-resistant Staphylococcus aureus 1113041 clinical isolate after 20 to 24 hrs by two-fold microdilution method
Staphylococcus aureus [29] = test: Antibacterial activity against […] Staphylococcus aureus ATCC 25923 after 20 to 24 hrs by two-fold microdilution method
Staphylococcus aureus [30] = test: Antibacterial activity against methicillin-resistant Staphylococcus aureus 109016 clinical isolate after 20 to 24 hrs by two-fold microdilution method
Streptococcus pyogenes = test: Antibacterial activity against Streptococcus pyogenes ATCC 19615 after 20 to 24 hrs by two-fold microdilution method
Staphylococcus aureus [31] = test: Antibacterial activity against methicillin-resistant Staphylococcus aureus 1111047-1 clinical isolate after 20 to 24 hrs by two-fold microdilution method
Staphylococcus aureus [32] = test: Antibacterial activity against methicillin-resistant Staphylococcus aureus 919205 clinical isolate after 20 to 24 hrs by two-fold microdilution method
Staphylococcus aureus [33] = test: Antibacterial activity against methicillin-resistant Staphylococcus aureus 502025 clinical isolate after 20 to 24 hrs by two-fold microdilution method
Staphylococcus aureus [34] = test: Antibacterial activity against methicillin-resistant Staphylococcus aureus 724244 clinical isolate after 20 to 24 hrs by two-fold microdilution method
Staphylococcus aureus [35] = test: Antibacterial activity against methicillin-resistant Staphylococcus aureus 202045 clinical isolate after 20 to 24 hrs by two-fold microdilution method
Staphylococcus aureus [36] = test: Antibacterial activity against methicillin-resistant Staphylococcus aureus GLH15 clinical isolate after 20 to 24 hrs by two-fold microdilution method
Staphylococcus aureus [37] = test: Antibacterial activity against methicillin-resistant Staphylococcus aureus clinical isolate after 20 to 24 hrs by two-fold microdilution method
Staphylococcus aureus [38] = test: Antibacterial activity against methicillin-resistant Staphylococcus aureus 123152 clinical isolate after 20 to 24 hrs by two-fold microdilution method
Staphylococcus aureus [39] = test: Antibacterial activity against methicillin-resistant Staphylococcus aureus 1214023 clinical isolate after 20 to 24 hrs by two-fold microdilution method
Staphylococcus aureus [40] = test: Antibacterial activity against methicillin-resistant Staphylococcus aureus 814039 clinical isolate after 20 to 24 hrs by two-fold microdilution method
Staphylococcus aureus [41] = test: Antibacterial activity against methicillin-resistant Staphylococcus aureus 912014 clinical isolate after 20 to 24 hrs by two-fold microdilution method
Staphylococcus aureus [42] = test: Antibacterial activity against methicillin-resistant Staphylococcus aureus 221022 clinical isolate after 20 to 24 hrs by two-fold microdilution method
Staphylococcus aureus [43] = test: Antibacterial activity against methicillin-resistant Staphylococcus aureus 121969 clinical isolate after 20 to 24 hrs by two-fold microdilution method
Staphylococcus aureus [44] = test: Antibacterial activity against methicillin-resistant Staphylococcus aureus 1212221 clinical isolate after 20 to 24 hrs by two-fold microdilution method

## O=C1c2cccnc2C(=O)c2c1c(C(=O)OCCCCCN1CCOCC1)c1ccc(Br)cn21
Staphylococcus aureus [1]
  MIC: 0.063 µg/mL (≈ 0.12 µM)
Staphylococcus aureus [2]
  MIC: ≤ 0.0078 µg/mL
Staphylococcus aureus [3]
  MIC: 16 µg/mL (≈ 30.4 µM)
Staphylococcus aureus [4]
  MIC: ≤ 0.0078 µg/mL
Staphylococcus aureus [5]
  MIC: 0.016 µg/mL (≈ 0.0304 µM)
Staphylococcus aureus [6]
  MIC: ≤ 0.0078 µg/mL
Streptococcus pneumoniae
  MIC: 2 µg/mL (≈ 3.8 µM)
Staphylococcus aureus [7]
  MIC: 0.031 µg/mL (≈ 0.0589 µM)
Enterococcus faecalis
  MIC: 0.25 µg/mL (≈ 0.475 µM)
[8]
  MIC: 1 µg/mL (≈ 1.9 µM)
Staphylococcus aureus [9]
  MIC: 0.031 µg/mL (≈ 0.0589 µM)
Staphylococcus aureus [10]
  MIC: 0.031 µg/mL (≈ 0.0589 µM)
Staphylococcus aureus [11]
  MIC: ≤ 0.0078 µg/mL
Staphylococcus aureus [12]
  MIC: 0.031 µg/mL (≈ 0.0589 µM)
Staphylococcus aureus [13]
  MIC: ≤ 0.0078 µg/mL
Staphylococcus aureus [14]
  MIC: 0.25 µg/mL (≈ 0.475 µM)
Staphylococcus aureus [15]
  MIC: 16 µg/mL (≈ 30.4 µM)
Staphylococcus aureus [16]
  MIC: 0.031 µg/mL (≈ 0.0589 µM)
Staphylococcus aureus [17]
  MIC: 0.125 µg/mL (≈ 0.237 µM)
Staphylococcus aureus [18]
  MIC: 0.031 µg/mL (≈ 0.0589 µM)
Staphylococcus aureus [19]
  MIC: 0.031 µg/mL (≈ 0.0589 µM)
Staphylococcus aureus [20]
  MIC: 0.031 µg/mL (≈ 0.0589 µM)
Staphylococcus aureus [21]
  MIC: 0.031 µg/mL (≈ 0.0589 µM)
Staphylococcus aureus [22]
  MIC: 0.031 µg/mL (≈ 0.0589 µM)
Staphylococcus aureus [23]
  MIC: 0.031 µg/mL (≈ 0.0589 µM)
Staphylococcus aureus [24]
  MIC: ≤ 0.0078 µg/mL
Staphylococcus aureus [25]
  MIC: 0.063 µg/mL (≈ 0.12 µM)
Staphylococcus aureus [26]
  MIC: ≤ 0.0078 µg/mL
Staphylococcus aureus [27]
  MIC: 0.031 µg/mL (≈ 0.0589 µM)
Staphylococcus aureus [28]
  MIC: ≤ 0.0078 µg/mL
Staphylococcus aureus [29]
  MIC: 0.016 µg/mL (≈ 0.0304 µM)
Staphylococcus aureus [30]
  MIC: ≤ 0.0078 µg/mL
Streptococcus pyogenes
  MIC: 8 µg/mL (≈ 15.2 µM)
Staphylococcus aureus [31]
  MIC: 0.063 µg/mL (≈ 0.12 µM)
Staphylococcus aureus [32]
  MIC: 0.016 µg/mL (≈ 0.0304 µM)
Staphylococcus aureus [33]
  MIC: 0.125 µg/mL (≈ 0.237 µM)
Staphylococcus aureus [34]
  MIC: ≤ 0.0078 µg/mL
Staphylococcus aureus [35]
  MIC: 0.016 µg/mL (≈ 0.0304 µM)
Staphylococcus aureus [36]
  MIC: 0.031 µg/mL (≈ 0.0589 µM)
Staphylococcus aureus [37]
  MIC50: 0.031 µg/mL (≈ 0.0589 µM)
  MIC90: 0.125 µg/mL (≈ 0.237 µM)
Staphylococcus aureus [38]
  MIC: 0.031 µg/mL (≈ 0.0589 µM)
Staphylococcus aureus [39]
  MIC: 0.125 µg/mL (≈ 0.237 µM)
Staphylococcus aureus [40]
  MIC: 0.125 µg/mL (≈ 0.237 µM)
Staphylococcus aureus [41]
  MIC: 0.063 µg/mL (≈ 0.12 µM)
Staphylococcus aureus [42]
  MIC: 0.031 µg/mL (≈ 0.0589 µM)
Staphylococcus aureus [43]
  MIC: 0.063 µg/mL (≈ 0.12 µM)
Staphylococcus aureus [44]
  MIC: 0.031 µg/mL (≈ 0.0589 µM)

## O=C1c2cccnc2C(=O)c2c1c(C(=O)OCCCCCCN1CCOCC1)c1ccc(Br)cn21
Staphylococcus aureus [1]
  MIC: ≤ 0.0078 µg/mL
Staphylococcus aureus [2]
  MIC: ≤ 0.0078 µg/mL
Staphylococcus aureus [3]
  MIC: 16 µg/mL (≈ 29.6 µM)
Staphylococcus aureus [4]
  MIC: ≤ 0.0078 µg/mL
Staphylococcus aureus [5]
  MIC: 0.0078 µg/mL (≈ 0.0144 µM)
Staphylococcus aureus [6]
  MIC: ≤ 0.0078 µg/mL
Streptococcus pneumoniae
  MIC: 0.5 µg/mL (≈ 0.925 µM)
Staphylococcus aureus [7]
  MIC: ≤ 0.0078 µg/mL
Enterococcus faecalis
  MIC: 0.063 µg/mL (≈ 0.117 µM)
[8]
  MIC: 0.031 µg/mL (≈ 0.0574 µM)
Staphylococcus aureus [9]
  MIC: ≤ 0.0078 µg/mL
Staphylococcus aureus [10]
  MIC: ≤ 0.0078 µg/mL
Staphylococcus aureus [11]
  MIC: ≤ 0.0078 µg/mL
Staphylococcus aureus [12]
  MIC: ≤ 0.0078 µg/mL
Staphylococcus aureus [13]
  MIC: ≤ 0.0078 µg/mL
Staphylococcus aureus [14]
  MIC: ≤ 0.0078 µg/mL
Staphylococcus aureus [15]
  MIC: > 16 µg/mL
Staphylococcus aureus [16]
  MIC: ≤ 0.0078 µg/mL
Staphylococcus aureus [17]
  MIC: ≤ 0.0078 µg/mL
Staphylococcus aureus [18]
  MIC: ≤ 0.0078 µg/mL
Staphylococcus aureus [19]
  MIC: ≤ 0.0078 µg/mL
Staphylococcus aureus [20]
  MIC: ≤ 0.0078 µg/mL
Staphylococcus aureus [21]
  MIC: ≤ 0.0078 µg/mL
Staphylococcus aureus [22]
  MIC: ≤ 0.0078 µg/mL
Staphylococcus aureus [23]
  MIC: ≤ 0.0078 µg/mL
Staphylococcus aureus [24]
  MIC: ≤ 0.0078 µg/mL
Staphylococcus aureus [25]
  MIC: ≤ 0.0078 µg/mL
Staphylococcus aureus [26]
  MIC: ≤ 0.0078 µg/mL
Staphylococcus aureus [27]
  MIC: ≤ 0.0078 µg/mL
Staphylococcus aureus [28]
  MIC: ≤ 0.0078 µg/mL
Staphylococcus aureus [29]
  MIC: ≤ 0.0078 µg/mL
Staphylococcus aureus [30]
  MIC: ≤ 0.0078 µg/mL
Streptococcus pyogenes
  MIC: 2 µg/mL (≈ 3.7 µM)
Staphylococcus aureus [31]
  MIC: ≤ 0.0078 µg/mL
Staphylococcus aureus [32]
  MIC: ≤ 0.0078 µg/mL
Staphylococcus aureus [33]
  MIC: ≤ 0.0078 µg/mL
Staphylococcus aureus [34]
  MIC: ≤ 0.0078 µg/mL
Staphylococcus aureus [35]
  MIC: ≤ 0.0078 µg/mL
Staphylococcus aureus [36]
  MIC: ≤ 0.0078 µg/mL
Staphylococcus aureus [37]
  MIC50: ≤ 0.0078 µg/mL
  MIC90: ≤ 0.0078 µg/mL
Staphylococcus aureus [38]
  MIC: ≤ 0.0078 µg/mL
Staphylococcus aureus [39]
  MIC: ≤ 0.0078 µg/mL
Staphylococcus aureus [40]
  MIC: ≤ 0.0078 µg/mL
Staphylococcus aureus [41]
  MIC: ≤ 0.0078 µg/mL
Staphylococcus aureus [42]
  MIC: ≤ 0.0078 µg/mL
Staphylococcus aureus [43]
  MIC: ≤ 0.0078 µg/mL
Staphylococcus aureus [44]
  MIC: ≤ 0.0078 µg/mL
